We go through eight compounds from ChEMBL document CHEMBL1955768, “Impact of stereochemistry on the biological activity of novel oleandomycin derivatives” (Bioorg Med Chem, 2012).

The subject of one data set is Haemophilus influenzae. Nature of the data set: Antibacterial activity against Haemophilus influenzae ATCC 49247 by broth microdilution method. In kind it is functional. A general note: In broth dilution the organism is exposed to a series of concentrations in liquid medium.
The subject of the next data set is Streptococcus pyogenes. Put plainly: Antibacterial activity against Streptococcus pyogenes ATCC 700294 by broth microdilution method. In kind it is functional. The settings on record: M1 GAS.
The test system of the next data set is THP-1. Put plainly: Cytotoxicity against human THP1 cells at 100 uM after 24 hrs by MTS assay. As to conditions: thp-1, 24 h. In kind it is cell-based. On the technique in general: Tetrazolium assays rely on reduction of a dye to a coloured formazan, in cell work by metabolically active cells.
A further data set relates to Streptococcus pneumoniae. Put plainly: Antibacterial activity against Streptococcus pneumoniae ATCC 49619 by broth microdilution method. In kind it is functional.
A further data set relates to Staphylococcus aureus. Nature of the data set: Antibacterial activity against Staphylococcus aureus ATCC 13709 by broth microdilution method. In kind it is functional.
A further data set relates to Splenocyte. Put plainly: Inhibition of LPS-induced IL-6 production in mouse splenocytes at 50 uM after 2 hrs preincubation by ELISA. In kind it is functional. On the technique in general: An ELISA detects its analyte on a solid surface through an enzyme-linked reagent.
For a further data set, the system named is Mus musculus. Put plainly: Antiinflammatory activity against LPS-induced lung neutrophilia in BALB/cJ mouse model assessed as reduction in neutrophil numbers in bronchoalveolar lavage fluid at 100 mg/kg, ip treated 2 hrs before LPS challenge measured after 24 hrs by hematological analyzer. In kind it is functional, organism-based. On the set-up: dose 100 mg/kg.

Another data set has as its system Moraxella catarrhalis. Put plainly: Antibacterial activity against Moraxella catarrhalis ATCC 23246 by broth microdilution method. In kind it is functional.

Converted amounts (≈) assume the structure as drawn. The source made the active and inactive calls. The calls are words filed in the database; no cut-off is given here.

The term inhibition denotes the drop in the measured response relative to a control, in per cent. A higher inhibition goes with a response far below the control.

Regarding `CO[C@H]1C[C@H](O[C@H]2[C@H](C)[C@@H](O[C@@H]3O[C@H](C)C[C@H](N(C)C)[C@H]3O)[C@@H](C)C[C@@H](C)[C@H](O)[C@H](C)[C@@H](O)[C@@H](C)[C@@H](C)OC(=O)[C@@H]2C)O[C@@H](C)[C@@H]1O`, the MIC against Haemophilus influenzae was more than 64 µg/mL; in the data set with Streptococcus pyogenes it was more than 64 µg/mL; against Streptococcus pneumoniae it was 4 µg/mL (≈ 5.92 µM); against Staphylococcus aureus, more than 64 µg/mL; against Moraxella catarrhalis, more than 64 µg/mL. Also, the Activity entry with THP-1 is on record as “Non-toxic”. In the data set with Splenocyte, 50 µM produced 61% inhibition. Besides, the outcome in the data set with Mus musculus was Active.

`C=C1C[C@H](C)[C@H](O[C@@H]2O[C@H](C)C[C@H](N(C)C)[C@H]2O)[C@@H](C)[C@H](O[C@H]2C[C@H](OC)[C@@H](O)[C@H](C)O2)[C@@H](C)C(=O)O[C@H](C)[C@H](C)[C@H](O)[C@@H](C)[C@@H]1O`: the MIC in the data set with Haemophilus influenzae, in the data set with Streptococcus pyogenes, against Streptococcus pneumoniae, in the data set with Staphylococcus aureus and in the data set with Moraxella catarrhalis was more than 64 µg/mL throughout. Moreover, the Activity entry in the data set on THP-1 is given as “Non-toxic”. Besides, in the data set with Splenocyte, the inhibition at 50 µM was found to be 13%.

For the compound `CO[C@H]1C[C@H](O[C@H]2[C@H](C)[C@@H](O[C@@H]3O[C@H](C)C[C@H](N(C)C)[C@H]3O)[C@@H](C)C[C@@H](C)C(=O)[C@H](C)[C@@H](O)[C@@H](C)[C@@H](C)OC(=O)[C@@H]2C)O[C@@H](C)[C@@H]1O`, the MIC was more than 64 µg/mL against Haemophilus influenzae; 0.5 µg/mL (≈ 0.742 µM) against Streptococcus pyogenes; 0.25 µg/mL (≈ 0.371 µM) against Streptococcus pneumoniae; 4 µg/mL (≈ 5.94 µM) against Staphylococcus aureus; 2 µg/mL (≈ 2.97 µM) in the data set on Moraxella catarrhalis. In addition, the Activity result with THP-1 is given as “Non-toxic”. Besides, in the data set on Splenocyte, the inhibition at 50 µM was determined as 69%.

`CO[C@H]1C[C@H](O[C@H]2[C@H](C)[C@@H](O[C@@H]3O[C@H](C)C[C@H](N(C)C)[C@H]3O)[C@@H](C)C[C@H](C)[C@@H](O)[C@H](C)[C@@H](O)[C@@H](C)[C@@H](C)OC(=O)[C@@H]2C)O[C@@H](C)[C@@H]1O`: the MIC against Haemophilus influenzae, in the data set with Streptococcus pyogenes, against Streptococcus pneumoniae, against Staphylococcus aureus and against Moraxella catarrhalis was more than 64 µg/mL throughout. In the data set on THP-1, the Activity entry is on record as “Non-toxic”. Besides, the inhibition at 50 µM in the data set on Splenocyte was 2%. For the same compound, the outcome in the data set on Mus musculus was Active.

Regarding `CO[C@H]1C[C@H](O[C@H]2[C@H](C)[C@@H](O[C@@H]3O[C@H](C)C[C@H](N(C)C)[C@H]3O)[C@@H](C)C[C@H](C)C(=O)[C@H](C)[C@@H](O)[C@@H](C)[C@@H](C)OC(=O)[C@@H]2C)O[C@@H](C)[C@@H]1O`, the MIC against Haemophilus influenzae, against Streptococcus pyogenes, in the data set with Streptococcus pneumoniae, in the data set on Staphylococcus aureus and in the data set on Moraxella catarrhalis was more than 64 µg/mL in each case. The Activity result in the data set on THP-1 is on record as “Non-toxic”. In the data set on Splenocyte, this compound showed an inhibition at 50 µM of 42%.

As to `CO[C@H]1C[C@H](O[C@H]2[C@H](C)[C@@H](O[C@@H]3O[C@H](C)C[C@H](N(C)C)[C@H]3O)[C@@H](C)C[C@H](C)[C@H](O)[C@H](C)[C@@H](O)[C@@H](C)[C@@H](C)OC(=O)[C@@H]2C)O[C@@H](C)[C@@H]1O`, the MIC in the data set with Haemophilus influenzae, in the data set with Streptococcus pyogenes, with Streptococcus pneumoniae, against Staphylococcus aureus and in the data set on Moraxella catarrhalis was more than 64 µg/mL each time. Moreover, in the data set with THP-1, the Activity entry was “Non-toxic”. Testing at 50 µM in the data set on Splenocyte gave an inhibition of 12%.

For the compound `CO[C@H]1C[C@H](O[C@H]2[C@H](C)[C@@H](O[C@@H]3O[C@H](C)C[C@H](N(C)C)[C@H]3O)[C@@H](C)C[C@@H](C)[C@@H](O)[C@H](C)[C@@H](O)[C@@H](C)[C@@H](C)OC(=O)[C@@H]2C)O[C@@H](C)[C@@H]1O`, the MIC in the data set with Haemophilus influenzae, against Streptococcus pyogenes, in the data set on Streptococcus pneumoniae, against Staphylococcus aureus and in the data set with Moraxella catarrhalis was more than 64 µg/mL throughout. For the same compound, the Activity result in the data set with THP-1 was “Non-toxic”. In the data set on Splenocyte, this compound displayed an inhibition at 50 µM of 2%.

In the case of `C=C1C[C@H](C)[C@H](O[C@@H]2O[C@H](C)C[C@H](N(C)C)[C@H]2O)[C@@H](C)[C@H](O[C@H]2C[C@H](OC)[C@@H](O)[C@H](C)O2)[C@@H](C)C(=O)O[C@H](C)[C@H](C)[C@H](O)[C@@H](C)[C@H]1O`, the MIC with Haemophilus influenzae, in the data set with Streptococcus pyogenes, in the data set on Streptococcus pneumoniae, with Staphylococcus aureus and against Moraxella catarrhalis was more than 64 µg/mL throughout. Further, the Activity entry with THP-1 was “Non-toxic”. In the data set with Splenocyte, this compound displayed an inhibition at 50 µM of 13%.
